These results are taken from patent US7858796B2, “Chemical compounds” (Glaxo Group Limited, priority 2004, dated 2010).

For one assay, the target named is T1, Recombinant human IKKβ (residues 1-737) (Homo sapiens, UniProt O14920).
T1 construct: Recombinant human IKKβ (residues 1-737); GST (C); made in house
T1 sequence (O14920 1-737): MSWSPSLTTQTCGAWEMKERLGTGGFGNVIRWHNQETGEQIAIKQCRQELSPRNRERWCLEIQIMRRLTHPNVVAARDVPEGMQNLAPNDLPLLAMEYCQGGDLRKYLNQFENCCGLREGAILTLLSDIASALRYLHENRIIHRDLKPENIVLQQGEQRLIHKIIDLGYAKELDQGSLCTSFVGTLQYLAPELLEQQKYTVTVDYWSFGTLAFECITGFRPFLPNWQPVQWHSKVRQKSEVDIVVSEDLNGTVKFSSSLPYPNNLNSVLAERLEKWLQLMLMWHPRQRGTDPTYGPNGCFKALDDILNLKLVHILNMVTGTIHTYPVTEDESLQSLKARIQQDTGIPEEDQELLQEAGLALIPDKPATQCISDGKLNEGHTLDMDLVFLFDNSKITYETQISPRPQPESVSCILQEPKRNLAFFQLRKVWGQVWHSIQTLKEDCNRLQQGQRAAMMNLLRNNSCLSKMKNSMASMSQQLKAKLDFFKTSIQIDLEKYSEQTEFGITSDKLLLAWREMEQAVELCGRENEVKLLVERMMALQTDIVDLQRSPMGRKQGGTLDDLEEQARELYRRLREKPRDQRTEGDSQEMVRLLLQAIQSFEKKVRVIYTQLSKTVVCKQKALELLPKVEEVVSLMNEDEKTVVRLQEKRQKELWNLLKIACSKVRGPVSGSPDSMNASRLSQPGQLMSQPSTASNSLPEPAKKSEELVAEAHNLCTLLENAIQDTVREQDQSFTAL
Nature of the assay: IKK2 Assay (TR-FRET). It counts as biochemical. Conditions: IKK2 5 nM, GST-IκBα 25 nM, ATP 1 μM, 30 minutes at room temperature, read-out: pIC50 against IKK2 (converted). As for the experimental part:
Recombinant human IKKβ (residues 1-737) was expressed in baculovirus as a C-terminal GST-tagged fusion protein, and its activity was assessed using a time-resolved fluorescence resonance energy transfer (TR-FRET) assay. Briefly, IKK2 (5 nM final) diluted in assay buffer (50 mM HEPES, 10 mM MgCl2, 1 mM CHAPS pH 7.4 with 1 mM DTT and 0.01% w/v BSA) was added to wells containing various concentrations of compound or DMSO vehicle (3% final). The reaction was initiated by the addition of GST-IκBα substrate (25 nM final)/ATP (1 μM final), in a total volume of 30 μl. The reaction was incubated for 30 minutes at room temperature, then terminated by the addition of 15 μl of 50 mM EDTA. Detection reagent (15 μl) in buffer (100 mM HEPES pH 7.4, 150 mM NaCl and 0.1% w/v BSA) containing antiphosphoserine-IκBα-32/36 monoclonal antibody 12C2 (Cell Signalling Technology, Beverly Mass., USA) labelled with W-1024 europium chelate (Wallac OY, Turku, Finland), and an APC-labelled anti-GST antibody (Prozyme, San Leandro, Calif., USA) was added and the reaction was further incubated for 60 minutes at room temperature. The degree of phosphorylation of GST-IκBα was measured using a Packard Discovery plate reader (Perkin-Elmer Life Sciences, Pangbourne, UK) as a ratio of specific 665 nm energy transfer signal to reference europium 620 nm signal.
For orientation: Time-resolved FRET reads energy transfer from a long-lived donor to a nearby acceptor.
Consider `NC(=O)c1cc(-c2ccccc2)cc2c(C3CCN(S(=O)(=O)CCNCC4CCCCC4)CC3)c[nH]c12` [Example 38], for which the IC50 is not above 10 µM.
On to `NC(=O)c1cc(-c2ccccc2)cc2c(C3CCN(S(=O)(=O)CCOCC4CCOC4)CC3)c[nH]c12` (stereo not shown) [Example 200], for which the IC50 was not above 10 µM.
On to `COCCCS(=O)(=O)N1CCC(c2c[nH]c3c(C(N)=O)cc(-c4cccc(CNCCN5CCCCC5)c4)cc23)CC1` [Example 249], for which the IC50 is more than 25.1 µM.

The test system of a further assay is human monocyte stimulated cytokine production (TNF-α). Description: Monocyte Assay (LPS-stimulated TNF-α production). The assay is classed as cell-based. The settings on record: human CD14+ monocytes, 200 ng/mL LPS, 24 hrs, TNF-α by ELISA. The protocol:
Effect of IKK-β inhibition on human monocyte stimulated cytokine production was assessed as follows: Monocytes were isolated from heparinized whole blood by Ficoll gradient, followed by purification of CD14+ cells using MACS magnetic cell separation beads. Isolated monocytes were then adhered to 96-well culture plates at 1×10^6 cells/mL in RPMI 1640 10% FBS (JRH Biosciences, Lenexa Kans.) for 2 h. to further enrich the monocyte population. The media was then removed, cells washed once with RPMI 1640, and 0.125 mL RPMI 1640 10% FBS was added to the wells. Test compounds are added to the wells 30 minutes prior to stimulation with a final vehicle concentration of 0.1% DMSO. Monocytes were activated by the addition of 200 ng/mL endotoxin (LPS; E. coli serotype 026:B6) (Sigma, St. Louis, Mo.) and incubated for 24 hrs at 37 C. Cell-free supernates were analyzed by ELISA for TNF-α using Pharmingen matched pair Abs. Viability of the cells was determined by10% trypan blue exclusion.
(In general: In an ELISA, binding on a coated surface is turned into a signal by an enzyme label.)
For the compound `NC(=O)c1cc(-c2ccccc2)cc2c(C3CCN(S(=O)(=O)CCOCC4CCOC4)CC3)c[nH]c12` (stereo not shown) [Example 200], the IC50 is less than 10 µM.
In turn, `Cc1nn(C)c(C)c1S(=O)(=O)N1CCC(c2c[nH]c3c(C(N)=O)cc(-c4ccccc4)cc23)CC1` [Example 276, 5-phenyl-3-{1-[(1,3,5-trimethyl-1H-pyrazol-4-yl)sulfonyl]-4-piperidinyl}-1H-indole-7-carboxamide] gave an IC50 of less than 10 µM.
Turning to `Cc1noc(C)c1S(=O)(=O)N1CCC(c2c[nH]c3c(C(N)=O)cc(-c4ccccc4)cc23)CC1` [Example 277, 3-{1-[(3,5-dimethyl-4-isoxazolyl)sulfonyl]-4-piperidinyl}-5-phenyl-1H-indole-7-carboxamide], the IC50 is less than 10 µM.
On the same count and under the same terms, the same measure for `Cc1nc(C)c(S(=O)(=O)N2CCC(c3c[nH]c4c(C(N)=O)cc(-c5ccccc5)cc34)CC2)s1` [Example 278, 3-{1-[(2,4-dimethyl-1,3-thiazol-5-yl)sulfonyl]-4-piperidinyl}-5-phenyl-1H-indole-7-carboxamide]: less than 10 µM; for `Cc1ncc(S(=O)(=O)N2CCC(c3c[nH]c4c(C(N)=O)cc(-c5ccccc5)cc34)CC2)n1C` [Example 279, 3-{1-[(1,2-dimethyl-1H-imidazol-5-yl)sulfonyl]-4-piperidinyl}-5-phenyl-1H-indole-7-carboxamide]: less than 10 µM; for `Cn1cnc(S(=O)(=O)N2CCC(c3c[nH]c4c(C(N)=O)cc(-c5ccsc5)cc34)CC2)c1` [Example 280, 3-{1-[(1-methyl-1H-imidazol-4-yl)sulfonyl]-4-piperidinyl}-5-(3-thienyl)-1H-indole-7-carboxamide]: less than 10 µM.
Compound `NC(=O)c1cc(-c2ccccc2)cc2c(C3CCN(S(=O)(=O)c4ccsc4)CC3)c[nH]c12` [Example 311, 5-phenyl-3-[1-(3-thienylsulfonyl)piperidin-4-yl]-1H-indole-7-carboxamide] had an IC50 of less than 10 µM.
